From US20150352114A1, “MITOTIC KINESIN Eg5 INHIBITING ANTICANCER AGENTS” (THE CLEVELAND CLINIC FOUNDATION, priority 2014, published 2015) come the findings set out here.

In the assay the test system is pCRMP2 (T514) in interphase GSCs. Put plainly: CRMP2 phosphorylation immunoblot. The assay is classed as cell-based, human. The conditions noted are these: interphase GSCs treated with microtubule agents. On the procedure: FIGS. 8(A-B) illustrate that Eg5 impacts microtubule growth through the CRMP-tubulin deposition pathway; (A) 08-387 GSCs enriched in interphase were exposed to vehicle (DMSO) or ispinesib (200 nM) and harvested for whole cell lysates every two hours over a 6 hour time course. Resulting lysates were probed for CRMP2 and pCRMP2 (T514); (B) Human brain microvascular endothelial cells (HuBrMVECs) were treated with vehicle (DMSO) or ispinesib (200 nM) and harvested for whole cell lysates every three hours over a 6 hour time course. Resulting lysates were probed for CRMP2 and pCRMP2 (T514); For all immunoblots, βactin served as a loading control. Molecular weight (MW) of resulting bands is given in kilodaltons (kD).
Protein extracts were made using a 50 mM Tris pH 8.0, […] NaCl, 0.5% NP-40 lysis solution. Resulting lysates were ran on 10% SDS-PAGE gels and transferred to Immobilon-FL PVDF (Millipore Corp., Billerica, Mass.). The membranes were blocked with 5% (wt/vol) bovine serum albumin in PBS-Tween-20 (0.2% vol/vol) and probed with primary antibodies against Eg5 (mouse, 1:4000, BD Biosciences, San Jose, Calif.), Olig2 (rabbit, 1:1000, abcam, San Francisco, Calif.), GFAP (DAKO; 1:10,000, Carpinteria, Calif.), CRMP2 (mouse, 1:1000, abgent, San Diego, Calif.), pCRMP2(T514) (rabbit, 1:1000, Cell Signaling, Beverly, Mass.), or β-actin (mouse, 1:8000, Sigma-Aldrich, St. Louis, Mo.) as a loading control. Secondary antibodies (LI-COR) were incubated in TBST+0.02% SDS and visualized with the LI-COR Odyssey near infrared imaging system (Lincoln, NB).

With `COC(=O)Nc1nc2ccc(C(=O)c3cccs3)cc2[nH]1` [nocodazole], the “CRMP2 phosphorylation at T514” value was “induce CRMP2 phosphorylation at T514”.

For the compound `CC(=O)O[C@H]1C(=O)[C@@]2(C)[C@H]([C@H](OC(=O)c3ccccc3)[C@]3(O)C[C@H](OC(=O)[C@H](O)[C@@H](NC(=O)c4ccccc4)c4ccccc4)C(C)=C1C3(C)C)[C@]1(OC(C)=O)CO[C@@H]1C[C@@H]2O` [paclitaxel], the “CRMP2 phosphorylation at T514” value is “induce CRMP2 phosphorylation at T514”.
